Laboratory results from publication PMC12451337 (ESMO Open, 2025).
Where “and” joins values, the source holds several entries; their conditions need not be identical. Equal entries are not always repeated.

Key:
[1] = Pharmacokinetics in patients (plasma and tumor biopsy, LC-MS/MS)
Method: (§1) Blood was obtained from all patients and collected in anticoagulant tubes (K2-EDTA). Plasma samples were stored at −80°C until analysis (both drugs were validated as stable under these storage conditions). The PK analysis population included all patients who received at least one dose of AMXT 1501 and had at least one quantifiable AMXT 1501 plasma concentration postdose.

polyamine transport = system: polyamine transport; parameters: method as in PMID 19281226; conditions: without crossing the cell membrane; cited from earlier work
[2] = system: polyamine transport in T cells; test: Whole blood assay: uptake of fluorescently labeled spermine analog by activated T cells (flow cytometry); format: cell-based, human
Method: To evaluate the target engagement activity of AMXT 1501 after administration, an ex vivo pharmacodynamic assay assessing lymphocyte spermine uptake and inhibition of uptake by AMXT 1501 was developed.
The purpose of the whole blood assay is to quantify the inhibition of polyamine transport in T cells in human subjects receiving AMXT 1501. Whole blood collected from subjects receiving AMXT 1501 was diluted with serum-free media and stimulated with anti-CD3 and anti-CD28 to drive T-cell activation and proliferation for a total of 3 days. During the last 12-18 h of culture, a fluorescently labeled spermine analog (compound 5)[38] was added to the in vitro culture to monitor polyamine uptake into cells. The functional activity (inhibitory effect) of AMXT 1501 on compound 5 uptake by T cells is then determined using flow cytometry by measuring the frequency and mean fluorescence intensity of compound 5+ T cells. Comparisons were made between the uptake in the pretreatment sample and samples taken over time postdose.
An ex vivo blood-based pharmacodynamic assay was developed to measure the inhibition of uptake of a fluorescently labeled polyamine analog by AMXT 1501 into activated CD4+ lymphocytes in culture. Using a fluorescence-activating cell sorting system, tracking of the cellular uptake of the fluorescence of this labeled polyamine was followed after CD3/CD28 activation.

[3] = system: patients with advanced solid tumors; test: Phase I dose-escalation trial: safety and tolerability (TEAEs, DLTs, MTD, RP2D)
Method: The study was carried out in compliance with the International Council for Harmonisation Good Clinical Practices, including the ethical principles of the Declaration of Helsinki. All patients provided signed informed consent before any study-specific procedures were carried out.
For determination of dose escalation, all toxicities, all available PK, and other relevant patient data occurring during the first cycle were considered. In addition, safety in patients ongoing in repeat cycles at lower doses was also taken into consideration by the Cohort Review Committee (CRC; consisting of investigators and the medical monitor), when making dose-escalation decisions. The determination of RP2D included the assessment of acute and chronic toxicities and tolerability (missing doses, dose reductions, etc.) and was informed by the experience of the totality of data. The maximum tolerated dose (MTD) was defined as the highest dose level at which one or fewer of six patients experienced dose-limiting toxicities (DLTs). […] A dose reduction at or after cycle 2 was granted in accordance with dose modification guidelines if, in the opinion of the investigator, a dose reduction was in the best interest of the patient.
Safety was monitored throughout the study.

clinical = conditions: human, oral
Method: as §1

tumor cells in culture = test: Predicted ED95 against tumor cells in culture (nonclinical data); format: cell-based
[4] = whole human blood samples treated with 0-2000 nM AMXT 1501, absence of DFMO

With `CCCCCCCCCCCCCCCC(=O)NCCCC[C@@H](N)C(=O)NCCCNCCCCNCCCN` [AMXT 1501, AMXT 1501 dicaprate] the “AMXT 1501 exposure based on mean Cmax versus dose” value ([1]; human, in vivo) was “near dose-proportional”, the “Accumulation of AMXT 1501 after repeat dosing” value ([1]; human, in vivo) was “up to 10 fold” and the “Effect of DFMO administration on AMXT 1501 exposure” value ([1]; human, in vivo) was “no consistent effect”. The “Predose AMXT 1501 plasma concentration” value ([1]; human, in vivo) was 296 ng/mL, the “AMXT 1501 steady state obtained by” value ([1]; human, in vivo, po) was “cycle 1 day 14” and the “Blocks cellular uptake of spermidine” value (polyamine transport) was “nanomolar range”. The “Inhibition of fluorescent marker transport with DFMO added to the culture” value ([2]; DFMO added to the culture) was “still able to potently inhibit this transport”, the “Target engagement in samples taken over time following dosing versus pretreatment” value ([2]; ex vivo, patients' blood after oral dosing) was “sustained AMXT 1501 target engagement activity” and the “Concentration of maximal fluorescent-labeled spermine uptake inhibition” value [2, 4] was 250 nM. For the same molecule, the “half maximum inhibitory concentration (ED50)” value [2, 4] was roughly 75 nM, the “AMXT 1501 dose relationship with proportions of patients with TEAEs, treatment-related TEAEs or SAEs, discontinuation, dose interruption” value ([3]; human, in vivo) was “no strong evidence for any AMXT 1501 dose relationship” and the “RP2D of AMXT 1501 in the combination” value ([3]; in combination with DFMO 500 mg b.i.d.) was 600 mg b.i.d. The MTD ([3]; part 1, when given with DFMO 250 mg b.i.d.) was 1800 mg o.d, the “Part 1 AMXT 1501 recommended phase II dose (RP2D)” value ([3]; part 1, with DFMO 250 mg b.i.d.) was 1800 mg o.d and the Kp (clinical; tumor biopsy / plasma) was 12. The concentration at 30 days of treatment (clinical; tumor biopsy) was 3480 ng/mL and 6.12 µM and the “predicted effective dose 95% (ED95)” value (tumor cells in culture; in combination with DFMO, nonclinical data) was 100 nM.

With `NCCCC(N)(C(=O)O)C(F)F` (centres unmarked) [DFMO, difluoromethylornithine, reference compound] the “DFMO exposure versus dose” value ([1]; between the 500 and 1000 mg/day dose levels) was “approximately dose-proportional”, the “Change in DFMO exposure with repeat dosing” value ([1]; human, in vivo) was “no substantial change” and the “Effect of AMXT 1501 dose level on DFMO exposure” value ([1]; human, in vivo) was “no apparent effect”. For the same molecule, the “Achievement of predicted DFMO ED95 concentration (100 μM) by oral delivery” value ([1]; in combination with AMXT 1501) was “unable to achieve this level”, the “Effect of DFMO addition on uptake of the fluorescent marker” value ([2]; addition to the culture) was “increased the uptake of the fluorescent marker” and the “predicted ED95 concentration” value (tumor cells in culture) was 100 μM and 18 200 ng/ml.
